Laboratory results taken from US4010282A, “Anti-arrhythmic agents” (Knoll A.G. Chemische Fabriken, priority 1974, dated 1977).
Where two headings read alike, the source gives them in different places.

Assays:
rats = test: aconitine-induced disturbance of the heart rhythm in rats (electrocardiogram); format: in vivo; details: for ED25 / ED50: Rattus norvegicus
Excerpt: The anti-arrhythmic effect of the diamines could also be confirmed in intact research animals with an experimentally-induced disturbance of the heart rhythm. If rats are continuously infused intravenously with aconitine, severe disturbances in the heartbeat sequence, such as extrasystoles, ventricular tachycardia, and ventricular flutter, which eventually lead to the death of the experimental animal, can be detected in an electrocardiogram. By a pre-treatment with the new pharmaceutical agents, the appearance of these threatening disturbances of the heart rhythm can be hindered or, on continuous administration of aconitine, can be considerably delayed. This experimental model of arrhythmia has already been checked for its evidentiary value using clinically tested standard therapeutic agents and is highly suitable for an experimental animal characterization of anti-arrhythmic agents [cf. Bianchi et al., Arzneim. Forsch. 18, 845-850 (1968); Haas and Busch, Arzneim. Forsch. 18, 401-407 (1968); Haas et al., Arzneim. Forsch. 21, 1392-1399 (1971); Marmo, Naunyn-Schmiedeberg's Arch. Pharmak. 269, 231-247 (1971); and Strubelt et al., Naunyn-Schmiedeberg's Arch. Pharmak. 271, 346-360 (1971)].
The ED25 and ED50 are the intravenous or oral doses in mg/kg that permit a 25 percent or 50 percent increase in the dosage of aconitine administered, versus the aconitine control, until the occurrence of extrasystoles, ventricular tachycardia, and ventricular flutter.

[1] = tested on: left auricle of the guinea pig; test: inotropic effect: decrease in contractile force of the heart muscle; details: for Therapeutic Breadth (III/II): ratio ED25 inotropic / ED25 anti-arrhythmic
Excerpt: Jovier, J. Pharmakol. Exp. Therap. […] In this experimental arrangement, the numerous anti-arrhythmic agents, of different chemical structure and different therapeutic points of attack in man, heretofore used in therapy are all characterized by a lengthening of the functional refractory period. The method additionally permits determining the effects of the substance on the contractile force of the heart muscle [Reuter and Heeg, Naunyn-Schmiedeberg's Arch. Pharmak. […] Pharmak. […] It is, thus, highly suitable for detecting substances having a large therapeutic breadth, i.e., with a large margin of safety between anti-arrhythmically- and negative inotropically-effective doses.
The testing of the substances employed up to 30 individual experiments in each case. For the determination of the effective dose, linear regression functions were calculated [cf.
(§1) In column I of following Table 1, one of the new compounds and known anti-arrhythmic agents are entered. Column II gives the anti-arrhythmic effect. Column III reports the inotropic effect. The therapeutic breadth of the compounds is given in column IV. The ED25 is the effective dose which lengthens the refractory period by 25 percent or lowers the contractile force by 25 percent.

[2] = tested on: left auricle of the guinea pig; test: functional refractory period of the left auricle of the guinea pig using paired electrical stimulation (anti-arrhythmic effect); details: for activation at 100 µM: 10^-^4 Mol/l; for Anti-arrhythmic Effect (Prolongation of the Refractory Period) ED25: dose which lengthens the refractory period by 25 percent, up to 30 minutes after addition to bath liquid; for activation at 10 µM: 10^-^5 Mol/l
Excerpt: Jovier, J. Pharmakol. Exp. Therap. 148, 100-105 (1965). In this experimental arrangement, the numerous anti-arrhythmic agents, of different chemical structure and different therapeutic points of attack in man, heretofore used in therapy are all characterized by a lengthening of the functional refractory period. The method additionally permits determining the effects of the substance on the contractile force of the heart muscle [Reuter and Heeg, Naunyn-Schmiedeberg's Arch. Pharmak. 268, 323-333 (1971) and Zetler and Strubelt, Naunyn-Schmiedeberg's Arch. Pharmak. 271, 335-345 (1971)]. It is, thus, highly suitable for detecting substances having a large therapeutic breadth, i.e., with a large margin of safety between anti-arrhythmically- and negative inotropically-effective doses.
The testing of the substances employed up to 30 individual experiments in each case. For the determination of the effective dose, linear regression functions were calculated [cf. A. Lindner, Statistische Methoden, 3rd Edition, Birkhaeuser Verlag, Basel (1969)], in which the maximum percentage deviations from the starting value in a time period up to 30 minutes after addition of the test substance to the bath liquid was employed.
as §1

[3] = iv, read-out: Ventr. Tachycardia ED25
[4] = iv, read-out: Ventr. Tachycardia ED50
[5] = Cavia porcellus, read-out: Anti-arrhythmic Effect (% Prolongation of the Refractory Period)
[6] = dose which lowers the contractile force by 25 percent, up to 30 minutes after addition to bath liquid

Compound: c1ccc(CNCCCNCc2ccccc2)cc1
- ED25 (rats; iv, read-out: Extrasystoles ED25): 5.2 mg/kg
- ED50 (rats; iv, read-out: Extrasystoles ED50): 6 mg/kg
- ED25 (rats; iv, read-out: Ventr. Flutter ED25): 4.9 mg/kg
- ED50 (rats; iv, read-out: Ventr. Flutter ED50): 6.4 mg/kg
- ED25 (rats; [3]): 5.3 mg/kg
- ED50 (rats; [4]): 6.2 mg/kg
- ED25 (rats; po, read-out: Extrasystoles ED25): 65.8 mg/kg
- ED50 (rats; po, read-out: Extrasystoles ED50): 96.2 mg/kg
- ED25 (rats; po, read-out: Ventr. Flutter ED25): 51.1 mg/kg
- ED50 (rats; po, read-out: Ventr. Flutter ED50): 69.9 mg/kg
- ED25 (rats; po, read-out: Ventr. Tachycardia ED25): 55.4 mg/kg
- ED50 (rats; po, read-out: Ventr. Tachycardia ED50): 71.6 mg/kg
- effect in aconitine arrhythmia (rats; Table 3, parenterally as well as orally): superior effect
- Inotropic Effect (Decrease in Contractile Force) ED25 ([1]; guinea pig): 0.141
- Therapeutic Breadth (III/II) [1]: 2.6
- activation at 100 µM [2, 5]: 47%
- Anti-arrhythmic Effect (Prolongation of the Refractory Period) ED25 [2]: 0.054

Compound: c1ccc(CN(CC2=NCCN2)c2ccccc2)cc1 [Antazoline, antazoline]
- Inotropic Effect (Decrease in Contractile Force) ED25 [1, 6]: 0.094
- Therapeutic Breadth (III/II) [1]: 0.6
- Anti-arrhythmic Effect (Prolongation of the Refractory Period) ED25 [2]: 0.164

Compound: Clc1cccc(CNCCCNCc2cccc(Cl)c2)c1 [N,N'-di-(3'-chlorobenzyl)-propylene-1,3-diamine]
- activation at 20 µM ([2]; Cavia porcellus, 2 × 10^-^5 Mol/l, read-out: Anti-arrhythmic Effect (% Prolongation of the Refractory Period)): 45%

Compound: Clc1ccc(CNCCCNCc2ccc(Cl)cc2)cc1 [N,N'-di-(4'-chlorobenzyl)-1,3-diaminopropane]
- activation at 10 µM [2, 5]: 37%

Compound: Clc1ccc(CNCCCNCc2ccc(Cl)c(Cl)c2)cc1Cl [N,N'-di-(m,p-dichlorobenzyl)-propylenediamine]
- activation at 10 µM [2, 5]: 26%

Compound: COc1ccc(CNCCCNCc2ccc(OC)c(OC)c2)cc1OC [N,N'-di-(m,p-dimethoxybenzyl)propylenediamine]
- activation at 100 µM [2, 5]: 42%

Compound: c1ccc(CNCCNCc2ccccc2)cc1 [N,N'-dibenzyl-ethylenediamine]
- activation at 100 µM [2, 5]: 39%

Compound: CCC[N+]12C(O)C(CC)C3CC1C1N(C)c4ccccc4C14CC2C3C4O (stereo not drawn) [N,n-propylajmaline, N-propylajmaline]
- Inotropic Effect (Decrease in Contractile Force) ED25 [1, 6]: 0.0015
- Therapeutic Breadth (III/II) [1]: 0.4
- Anti-arrhythmic Effect (Prolongation of the Refractory Period) ED25 [2]: 0.0037

Compound: C1CCN2C[C@@H]3C[C@@H](CN4CCCC[C@@H]34)[C@H]2C1 [SPARTEINE, reference compound]
- ED25 (rats; [3]): 4.4 mg/kg
- ED50 (rats; [4]): 9.6 mg/kg
